Reference: US20110263546A1, “Polyhydroxylated Bile Acids for Treatment of Biliary Disorders” (priority 2008, published 2011)
Entries after “also recorded” stand apart in the source; their conditions may differ. Like-named read-outs stand apart in the source and are kept apart here.

Tests used:
wild-type mice [1] = conditions: for Infusion dose tolerated without death (highest dosage tested) / MTD compared with that of UDC: wild-type mice, tail vein infusion
Description: The maximum tolerated dose of bile acid according to the invention was determined. This test is carried out in two ways. First, as a pilot experiment of bile duct cannulation, a bolus of bile acid was infused into mice under anesthesia to measure its acute toxicity to animals. The responses of mice such as breath rate, bile flow rate, histological changes by H&E staining and the like were recorded. […] Using this tolerance level as a reference point, the acute toxicity of the bile acid was determined.
Bile collected was used for HPLC analysis.

mice = conditions: cited from earlier work
wild-type mice [2] = experiment: Bile flow rate (BFR) by bile duct cannulation after tail vein infusion; type: in vivo, mouse; conditions: for Bile flow rate, UDC compared with THBAs at similar quantity: 65 μmol/kg body weight infusion; for Bile flow rate on infusion of increasing quantities: 65-400 μmol/kg BW (6β,7αTHBA), 65 and 200 μmol/kg BW (6α,7αTHBA)
Description: After 20 minutes of bile flow equilibration, bile was collected into pre-weighed tubes at 5-minute intervals for 10 minutes. A bolus of 3α,6α,7α,12α-tetrahydroxy-5β-cholan-24-oic acid (6α,7αTHBA, pH.7.4-7.6), 3α,6β,7α,12α-tetrahydroxy-5β-cholan-24-oic acid (6β,7αTHBA, pH.7.4-7.6), ursodeoxycholic acid (UDC, pH.7.4-7.6) or cholic acid (100 μmol/kg body weight) was then infused into the tail vein over a 20-second interval. Bile was then further collected through the cannula at 2-minute intervals for 10 or 20 minutes, followed by 10-minute intervals for 30 minutes. The bile flow rate was calculated by weighing the tubes containing the collected bile.

[3] = test system: TKO, bsep−/−, mdr1a/b−/− and wildtype mice; conditions: 0.5% cholate diet, cited from earlier work
[4] = test system: TKO, bsep−/−, mdr1a/b−/− and wildtype mice; conditions: female TKO mice, 0.5% CA diet
Description: Mice were maintained in a 12-hour light and dark cycle, at 22° C., with free access to food and water. The mice were fed a normal diet except where specified otherwise in the results.
Chronic toxicity is tested by supplementing the diets of mice (wild-type as well as the hypersensitive bsep KO mice) with 0.1%-0.5% β-muricholate or bile acid according to the invention. Control feeding experiments use cholate as well as ursodeoxycholate.

[5] = mice, intravenous bolus (tail vein) infusion under anesthesia

Row | Structure (SMILES) | Bile flow rate, UDC compared with THBAs at similar quantity (wild-type mice [2]) | Bile flow rate on infusion of increasing quantities (wild-type mice [2]) | Maximum tolerated dose (MTD) (wild-type mice [1]; [5]) | Infusion dose tolerated without death (highest dosage tested) (wild-type mice [1]) | MTD compared with that of UDC (wild-type mice [1]) | also measured
1 | C[C@H](CCC(=O)O)[C@H]1CC[C@H]2[C@@H]3[C@@H](O)C[C@@H]4C[C@H](O)CC[C@]4(C)[C@H]3CC[C@]12C [UDC, ursodeoxycholic acid, reference compound] | – | – | – | – | – | Infused dose that caused death (wild-type mice [1]; FVB/NJ, mouse, in vivo): ≥ 70 μmol/kg body weight; Maximum tolerated dose (MTD) (wild-type mice [1]; mouse, in vivo, iv): 65 μmol/kg of body weight; LD50 (mice; mouse, in vivo, iv): ~600 µmol/kg; Oral LD50 relative to intravenous LD50 (mice; rodents): at least 15 times
2 | C[C@H](CCC(=O)O)[C@H]1CC[C@H]2[C@@H]3[C@H](O)[C@@H](O)[C@@H]4C[C@H](O)CC[C@]4(C)[C@H]3C[C@H](O)[C@]12C [6β,7αTHBA, 3α,6β,7α,12α-tetrahydroxy-5β-cholan-24-oic acid] | similar | corresponding increase in bile flow rate | > 500 μmol/kg of body weight | 500 μmol/kg of body weight | several times higher | –
3 | C[C@H](CCC(=O)O)[C@H]1CC[C@H]2[C@@H]3[C@H](O)[C@H](O)[C@@H]4C[C@H](O)CC[C@]4(C)[C@H]3C[C@H](O)[C@]12C [6α,7αTHBA, 3α,6α,7α,12α-tetrahydroxy-5β-cholan-24-oic acid] | similar | corresponding increase in bile flow rate | > 400 μmol/kg of body weight | 400 μmol/kg of body weight | several times higher | Effect on bile flow rate (BFR) (wild-type mice [2]; bolus 100 μmol/kg body weight into tail vein): stimulates bile flow rate; also recorded: promotes bile flow
4 | C[C@H](CCC(=O)O)[C@H]1CC[C@H]2[C@@H]3[C@H](O)C[C@@H]4C[C@H](O)CC[C@]4(C)[C@H]3C[C@H](O)[C@]12C [CA, 3α,7α,12α-trihydroxy-5β-cholan-24-oic acid] | – | – | – | – | – | Time to death ([3]; female TKO mice): within a week; Time to death ([3]; male bsep KO mice): ≤ 10 days; Time until terminally ill or died [4]: 3 to 7 days
